{"source": "paper PMC9926234", "about": "“Iterative computational design and crystallographic screening identifies potent inhibitors targeting the Nsp3 macrodomain of SARS-CoV-2” (Proceedings of the National Academy of Sciences of the …, 2023)", "key": {"SARS-CoV-2 NSP3 Mac1 [1]": {"target": "T1, SARS-CoV-2 NSP3 Mac1 (Severe acute respiratory syndrome coronavirus 2, UniProt P0DTD1)", "assay_type": "binding", "parameters": "contains a conserved macrodomain enzyme (Mac1)", "settings": "for Spearman est (compound concentration vs apparent Tm): DSF dose responsiveness, 1 µM nsp3 mac1, adj p given; for DSF max dTma: maximal thermal upshift", "method": "DSF and associated compound handling was performed as described ([12]), with 5 µM dye “Fluorescent Yellow” (Jacquard iDye Cat #JID1405) used in place of SYPRO Orange. Compounds were tested in triplicate, at seven concentrations in two-fold serial dilutions, at a top concentration of either 1,000 or 100 μM. To minimize experimental noise arising from plate location-based effects on Tma, all concentrations and replicates for each compound were tested within a single region of the microtiter plates, including a DMSO-only control from which ΔTmas were calculated for that compound. […] For each compound, to determine statistical significance of the dose responsive thermal shift, the Spearman’s coefficient was calculated between compound concentration and ΔTma."}, "SARS-CoV-2 NSP3 Mac1 [2]": {"target": "T1, SARS-CoV-2 NSP3 Mac1", "assay_type": "binding", "settings": "for Refined occupancy: ligand occupancy after refinement (phenix.refine)"}, "[3]": {"settings": "PanDDA 1-BDC value of the event, crystal soak, compound concentration 100 mM, per dataset"}, "[4]": {"settings": "PanDDA event map, 1 minus background density correction, crystal soaking of Mac1"}, "[5]": {"settings": "crystal soak, compound concentration 100 mM, per dataset"}, "[6]": {"settings": "ligand modeled in the crystal structure, crystal soak, compound concentration 100 mM, per dataset"}, "[7]": {"settings": "PanDDA 1-BDC of the event, compound stock 100 mM, Echo dispense volume 80 nl"}, "[8]": {"settings": "PanDDA event map 1-BDC, crystal soak, Compound_concentration 100 mM, PanDDA run dmso_34 or nohits_35 per dataset"}, "[9]": {"settings": "crystal soak, Compound_concentration 100 mM, Echo dispense 40 nl, PanDDA run dmso_34 or nohits_35 per dataset"}, "[10]": {"settings": "crystal soak, compound stock 100 mM, Echo dispense volume 80 nl"}, "[11]": {"settings": "ligand modeled in structure, compound stock 100 mM, Echo dispense volume 80 nl"}}, "note": "Where “and” joins values, the source holds several entries; their conditions need not be identical. Identical values can stand only once. Like-named read-outs stand apart in the source and are kept apart here."}
{"smiles": "O=C(O)CC1Cc2ccccc2N1C(=O)c1ccc(NC(=O)NC2CC2)cc1", "note": "(centres unmarked) [8539_0039]", "values": [{"measurement": "Spearman est (compound concentration vs apparent Tm)", "setting": "SARS-CoV-2 NSP3 Mac1 [1]", "result": 0.09}, {"measurement": "DSF max dTma", "setting": "SARS-CoV-2 NSP3 Mac1 [1]", "result": "2.09 ˚C"}]}
{"smiles": "COC(=O)C1Cc2c(O)cccc2C1NC(=O)c1ccc(NC(=O)NC2CC2)cc1", "note": "(centres unmarked) [8539_0076]", "values": [{"measurement": "Spearman est (compound concentration vs apparent Tm)", "setting": "SARS-CoV-2 NSP3 Mac1 [1]", "result": "−0.19"}, {"measurement": "DSF max dTma", "setting": "SARS-CoV-2 NSP3 Mac1 [1]", "result": "0 ˚C"}]}
{"smiles": "Cc1nc(Cn2cnc3c(N)nc(N)nc32)cs1", "note": "[Compound Z8569]", "values": [{"measurement": "1-BDC", "setting": "SARS-CoV-2 NSP3 Mac1 [2]; [3]", "result": 0.4}, {"measurement": "1-BDC", "setting": "SARS-CoV-2 NSP3 Mac1 [2]; [4]", "result": 0.4}, {"measurement": "PanDDA hit?", "setting": "SARS-CoV-2 NSP3 Mac1 [2]; [5]", "result": "TRUE"}, {"measurement": "Modeled?", "setting": "SARS-CoV-2 NSP3 Mac1 [2]; [6]", "result": "TRUE"}, {"measurement": "Refined occupancy", "setting": "SARS-CoV-2 NSP3 Mac1 [2]; crystal soaking of Mac1", "result": 80}]}
{"smiles": "Nc1nc(N)c2ncn(Cc3csc(Cl)n3)c2n1", "note": "[Compound Z8572]", "values": [{"measurement": "1-BDC", "setting": "SARS-CoV-2 NSP3 Mac1 [2]; [4]", "result": 0.44}, {"measurement": "Modeled?", "setting": "SARS-CoV-2 NSP3 Mac1 [2]; ligand modeled in structure, crystal soak, Compound_concentration 100 mM", "result": "TRUE"}, {"measurement": "Refined occupancy", "setting": "SARS-CoV-2 NSP3 Mac1 [2]; crystal soaking of Mac1", "result": 88}]}
{"smiles": "Nc1nc(N)c2ncn(Cc3csc(C4CC4)n3)c2n1", "note": "[Compound Z8585]", "values": [{"measurement": "1-BDC", "setting": "SARS-CoV-2 NSP3 Mac1 [2]; [3]", "result": 0.18}, {"measurement": "1-BDC", "setting": "SARS-CoV-2 NSP3 Mac1 [2]; PanDDA event map, 1-BDC of the hit dataset, crystal soak, compound concentration 100 mM", "result": 0.4}, {"measurement": "1-BDC", "setting": "SARS-CoV-2 NSP3 Mac1 [2]; [4]", "result": 0.18}, {"measurement": "PanDDA hit?", "setting": "SARS-CoV-2 NSP3 Mac1 [2]; [5]", "result": "TRUE"}, {"measurement": "Modeled?", "setting": "SARS-CoV-2 NSP3 Mac1 [2]; [6]", "result": "TRUE"}, {"measurement": "Refined occupancy", "setting": "SARS-CoV-2 NSP3 Mac1 [2]; crystal soaking of Mac1", "result": 36}]}
{"smiles": "CO[C@@H]1CN(c2ncnc3[nH]c4cc(F)ccc4c23)C[C@@H](CO)O1", "note": "[Compound Z8973]", "values": [{"measurement": "1-BDC", "setting": "SARS-CoV-2 NSP3 Mac1 [2]; [7]", "result": 0.25}, {"measurement": "1-BDC", "setting": "SARS-CoV-2 NSP3 Mac1 [2]; [8]", "result": 0.23}, {"measurement": "1-BDC (PanDDA)", "setting": "SARS-CoV-2 NSP3 Mac1 [2]; [4]", "result": 0.23}, {"measurement": "1-BDC", "setting": "SARS-CoV-2 NSP3 Mac1 [2]; PanDDA event map, crystal soak, Compound_concentration 100 mM, Echo_dispense_volume 40 nl", "result": 0.23}, {"measurement": "PanDDA hit?", "setting": "SARS-CoV-2 NSP3 Mac1 [2]; [9]", "result": "TRUE"}, {"measurement": "PanDDA hit?", "setting": "SARS-CoV-2 NSP3 Mac1 [2]; crystal soak, Compound_concentration 100 mM, Echo_dispense_volume 40 nl, PanDDA run (background map) dmso_34, nohits_35 or nohits_62", "result": "TRUE"}, {"measurement": "PanDDA hit?", "setting": "SARS-CoV-2 NSP3 Mac1 [2]; [10]", "result": "TRUE"}, {"measurement": "Modeled?", "setting": "SARS-CoV-2 NSP3 Mac1 [2]; ligand modeled, crystal soak, Compound_concentration 100 mM, Echo_dispense_volume 40 nl", "result": "TRUE"}, {"measurement": "Refined occupancy", "setting": "SARS-CoV-2 NSP3 Mac1 [2]; crystal soaking of Mac1", "result": 60}]}
{"smiles": "O=C(Nc1ccc(C(=O)N[C@H]2c3cccc(O)c3C[C@H]2C(=O)O)cc1)NC1CC1", "note": "[Compound Z9050]", "values": [{"measurement": "1-BDC", "setting": "SARS-CoV-2 NSP3 Mac1 [2]; [8]", "result": "0.21 and 0.27"}, {"measurement": "1-BDC (PanDDA)", "setting": "SARS-CoV-2 NSP3 Mac1 [2]; [4]", "result": 0.27}, {"measurement": "PanDDA hit?", "setting": "SARS-CoV-2 NSP3 Mac1 [2]; [9]", "result": "TRUE"}, {"measurement": "Modeled?", "setting": "SARS-CoV-2 NSP3 Mac1 [2]; ligand modeled in this dataset, crystal soak, Compound_concentration 100 mM", "result": "TRUE"}, {"measurement": "Refined occupancy", "setting": "SARS-CoV-2 NSP3 Mac1 [2]; crystal soaking of Mac1", "result": 54}]}
{"smiles": "COC(=O)C1(CO)CCN(c2ncnc3[nH]c4cc(F)ccc4c23)C1", "note": "(centres unmarked) [Compound Z9556]", "values": [{"measurement": "1-BDC", "setting": "SARS-CoV-2 NSP3 Mac1 [2]; [7]", "result": 0.1}, {"measurement": "1-BDC (PanDDA)", "setting": "SARS-CoV-2 NSP3 Mac1 [2]; [4]", "result": 0.1}, {"measurement": "PanDDA hit?", "setting": "SARS-CoV-2 NSP3 Mac1 [2]; [10]", "result": "TRUE"}, {"measurement": "Modeled?", "setting": "SARS-CoV-2 NSP3 Mac1 [2]; [11]", "result": "TRUE"}, {"measurement": "Refined occupancy", "setting": "SARS-CoV-2 NSP3 Mac1 [2]; crystal soaking of Mac1", "result": 20}]}
{"smiles": "O=C(O)CC1CN(c2ncnc3[nH]c4ccccc4c23)CCO1", "note": "(centres unmarked) [Compound Z9596]", "values": [{"measurement": "1-BDC", "setting": "SARS-CoV-2 NSP3 Mac1 [2]; PanDDA 1-BDC of the event, compound stock 100 mM, Echo dispense volume 40 nl", "result": 0.06}, {"measurement": "1-BDC", "setting": "SARS-CoV-2 NSP3 Mac1 [2]; [7]", "result": 0.09}, {"measurement": "1-BDC (PanDDA)", "setting": "SARS-CoV-2 NSP3 Mac1 [2]; [4]", "result": 0.06}, {"measurement": "PanDDA hit?", "setting": "SARS-CoV-2 NSP3 Mac1 [2]; crystal soak, compound stock 100 mM, Echo dispense volume 40 nl", "result": "TRUE"}, {"measurement": "PanDDA hit?", "setting": "SARS-CoV-2 NSP3 Mac1 [2]; [10]", "result": "TRUE"}, {"measurement": "Modeled?", "setting": "SARS-CoV-2 NSP3 Mac1 [2]; ligand modeled in structure, compound stock 100 mM, Echo dispense volume 40 nl", "result": "TRUE"}, {"measurement": "Refined occupancy", "setting": "SARS-CoV-2 NSP3 Mac1 [2]; crystal soaking of Mac1", "result": 12}]}
{"smiles": "O=C1CCCN1CCSc1ncnc2[nH]cnc12", "note": "[Compound Z9920]", "values": [{"measurement": "1-BDC", "setting": "SARS-CoV-2 NSP3 Mac1 [2]; PanDDA 1-BDC (background density correction) of the event, crystal soak 100 mM, PanDDA run dmso_34", "result": 0.21}, {"measurement": "1-BDC", "setting": "SARS-CoV-2 NSP3 Mac1 [2]; [4]", "result": 0.21}, {"measurement": "PanDDA hit?", "setting": "SARS-CoV-2 NSP3 Mac1 [2]; crystal soak, compound concentration 100 mM, PanDDA run dmso_34, series docking_lead-like_1", "result": "TRUE"}, {"measurement": "Modeled?", "setting": "SARS-CoV-2 NSP3 Mac1 [2]; ligand modeled in the crystal structure, crystal soak 100 mM, PanDDA run dmso_34", "result": "TRUE"}, {"measurement": "Refined occupancy", "setting": "SARS-CoV-2 NSP3 Mac1 [2]; crystal soaking of Mac1", "result": 42}]}
{"smiles": "O=C1CC2(CC2)C(CSc2n[nH]c(-c3ccccn3)n2)O1", "note": "(centres unmarked) [FRESH00010267028]", "values": [{"measurement": "Spearman est (compound concentration vs apparent Tm)", "setting": "SARS-CoV-2 NSP3 Mac1 [1]", "result": 0.52}, {"measurement": "DSF max dTma", "setting": "SARS-CoV-2 NSP3 Mac1 [1]", "result": "0.32 ˚C"}]}
{"smiles": "O=S1(=O)CCC2(CCCN(c3ncnc4[nH]c5cc(F)ccc5c34)C2)C1", "note": "(centres unmarked) [LL1_0010]", "values": [{"measurement": "Spearman est (compound concentration vs apparent Tm)", "setting": "SARS-CoV-2 NSP3 Mac1 [1]", "result": 0.3}, {"measurement": "DSF max dTma", "setting": "SARS-CoV-2 NSP3 Mac1 [1]", "result": "0.68 ˚C"}]}
{"smiles": "NC(=O)C1CCCN(c2ncnc3[nH]c4cc(F)ccc4c23)C1", "note": "(centres unmarked) [LL1_0016]", "values": [{"measurement": "Spearman est (compound concentration vs apparent Tm)", "setting": "SARS-CoV-2 NSP3 Mac1 [1]", "result": 0.18}, {"measurement": "DSF max dTma", "setting": "SARS-CoV-2 NSP3 Mac1 [1]", "result": "0.6 ˚C"}]}
{"smiles": "O=C(O)[C@@H]1[C@@H]2CCN(c3ncnc4[nH]c5cc(F)ccc5c34)C[C@@H]21", "note": "[LL114_0037]", "values": [{"measurement": "1-BDC", "setting": "SARS-CoV-2 NSP3 Mac1 [2]; [7]", "result": 0.17}, {"measurement": "1-BDC", "setting": "SARS-CoV-2 NSP3 Mac1 [2]; [8]", "result": 0.17}, {"measurement": "1-BDC (PanDDA)", "setting": "SARS-CoV-2 NSP3 Mac1 [2]; [4]", "result": 0.17}, {"measurement": "PanDDA hit?", "setting": "SARS-CoV-2 NSP3 Mac1 [2]; [9]", "result": "TRUE"}, {"measurement": "PanDDA hit?", "setting": "SARS-CoV-2 NSP3 Mac1 [2]; [10]", "result": "TRUE"}, {"measurement": "Modeled?", "setting": "SARS-CoV-2 NSP3 Mac1 [2]; [11]", "result": "TRUE"}, {"measurement": "Refined occupancy", "setting": "SARS-CoV-2 NSP3 Mac1 [2]; crystal soaking of Mac1", "result": 34}]}
